Laboratory results taken from patent US7241613B1, “Identification of Candida cell surface proteins and their uses” (priority 2002, dated 2007).
Values after ≈ are worked out from the molar mass of the structure shown. Read-outs that look alike come from different tables or passages of the source. Starred links: 1 amine or outer side, 2 acyl side, 3 side chain; linkers in the order of their positions; H or OH if unused. Positions of bridges follow the written chain, without caps; N, C: chain ends. Non-standard residues stand in square brackets, D forms with d. Residues, ends and D or L forms follow the SMILES beside them. *: point of attachment. hTyr(3S-OH,4S-OH,3'-OSO3H) = N[C@H](C(=O)O)[C@H](O)[C@@H](O)c1ccc(O)c(OS(=O)(=O)O)c1; Orn(4R-OH,5R-OH) = O=C([C@H](C[C@@H](O)[C@@H](O)N[*:3])N[*:1])[*:2]; Pro(3S-OH,4S-Me) = C[C@H]1CN[C@H](C(=O)O)[C@H]1O; X1 = CCCCCOc1ccc(-c2cc(-c3ccc(C(=O)*)cc3)no2)cc1; Gln(3R-OH) = NC(=O)C[C@@H](O)[C@H](N)C(=O)O; Hyp = O=C(O)[C@@H]1C[C@@H](O)CN1

What was measured:
[1] = test system: Sap2p, Sap1p, Sap1p and Sap1p; settings: in micromolar concentrations; cited from earlier work
[2] = test system: C. albicans csf null mutants, clinical isolate and parental strain; test: Antifungal susceptibility assay (MIC, NCCLS M27A); type: cell-based, Candida albicans; settings: all isolates, RPMI 1640, 35° C., 48 hours
Method: Assays were performed at the Center for Medical Mycology, University Hospitals of Cleveland to investigate whether the csf null mutants show a higher susceptibility to antifungals when compared to wild-type. The minimum inhibitory concentrations (MIC) of three antifungal agents, amphotericin B, fluconazole and micafungin, against each fungal isolate were determined according to the NCCLS M27A standard for susceptibility testing of yeasts. […] The MIC endpoint was defined as the lowest concentration that inhibits 80% of fungal growth as compared to the growth control, for fluconazole and micafungin, and 100% inhibition for amphotericin B.
In order to investigate more extensively the effects induced by the loss of the targeted genes on the cell wall (e.g. cell wall permeability), we tested whether the mutant strains were more susceptible to antifungal drugs. Three different antifungal agents were tested at Cleaveland: one polyene (Amphotericin B; a compound that binds to ergosterols and increases membrane permeability), one azole (Fluconazole; a compound that interferes with the ergosterol biosynthesis pathway) and one echinochandin (Micafungin; a compound that inhibits the β-glucan synthetase). No differences in MIC were detected. The MIC of amphotericin B against all isolates, including the clinical isolate and parental strain, was 0.5-1 μg/ml.

C. albicans null mutants = test: Sensitivities to calcofluor white, SDS or NaCl (spotting cells on YPD plates); type: cell-based, Candida albicans; settings: for NaCl sensitivity: 1-3 M NaCl; for NaCl sensitivity / Calcofluor white (CW) sensitivity: YPD plates, 37° C.; for Calcofluor white (CW) sensitivity: 3-25 μg/ml CW
Method: To investigate the effect of gene disruption on cell wall integrity and remodeling, we tested the sensitivity of all csf null mutants to calcofluor white (CW; Fluorescent Brightener 28-Sigma), SDS or NaCl by spotting cells on plates. Exponential cultures were harvested and adjusted to an OD600 of 0.24. 2.5 μl of samples plus three to four tenfold serial dilutions were deposited on the surface of YPD plates containing increasing concentrations of the compound: 3-25 μg/ml CW, 1-3 M NaCl, 0.01-0.5% SDS. […]
We further characterized the mutants by determining their susceptibility to calcofluor white, SDS and NaCl. The first column contains the name of the strains.
To go further in the analysis, we decided to test cells for their ability to respond to hyperosmotic stresses that require cell wall remodeling and integrity.

hsp90 = hsp90 (Candida albicans, UniProt P46598); settings: first stage of double-blind Phase II trial, systemic candidiasis; cited from earlier work
Chain of hsp90 (P46598 whole entry): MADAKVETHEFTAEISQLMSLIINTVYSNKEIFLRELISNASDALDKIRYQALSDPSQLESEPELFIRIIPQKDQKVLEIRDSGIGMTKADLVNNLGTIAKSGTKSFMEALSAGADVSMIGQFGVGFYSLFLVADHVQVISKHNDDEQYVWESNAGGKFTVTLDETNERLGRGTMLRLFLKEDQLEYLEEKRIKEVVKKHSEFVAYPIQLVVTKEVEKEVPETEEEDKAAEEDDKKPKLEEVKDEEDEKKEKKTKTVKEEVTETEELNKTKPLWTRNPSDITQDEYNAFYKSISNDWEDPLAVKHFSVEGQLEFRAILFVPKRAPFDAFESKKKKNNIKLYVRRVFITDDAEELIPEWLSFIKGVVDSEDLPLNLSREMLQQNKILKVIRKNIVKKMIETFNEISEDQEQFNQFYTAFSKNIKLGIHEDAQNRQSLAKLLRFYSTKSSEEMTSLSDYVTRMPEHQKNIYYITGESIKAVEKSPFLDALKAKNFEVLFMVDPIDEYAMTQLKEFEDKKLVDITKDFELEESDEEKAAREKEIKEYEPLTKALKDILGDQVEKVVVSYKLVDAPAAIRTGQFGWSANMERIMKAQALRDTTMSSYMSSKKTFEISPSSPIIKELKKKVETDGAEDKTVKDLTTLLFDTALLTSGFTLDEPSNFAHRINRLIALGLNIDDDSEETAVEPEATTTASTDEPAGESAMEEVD

[3] = Candida albicans, endpoint 80% inhibition of fungal growth, read-out: MIC
[4] = 6.1231 null mutant vs wild type
[5] = 6.1639 null mutant vs wild type
[6] = 6.3873 null mutant vs wild type

CC(C)c1nc(CN(C)C(=O)N[C@H](C(=O)N[C@@H](Cc2ccccc2)C[C@H](O)[C@H](Cc2ccccc2)NC(=O)OCc2cncs2)C(C)C)cs1 [ritonavir]
inhibition of the activity of Sap2p, Sap1p, Sap1p and Sap1p [1]: inhibit the activity

OC(Cn1cncn1)(Cn1cncn1)c1ccc(F)cc1F [fluconazole]
MIC [2, 3]: 0.25 mg/L (≈ 0.816 µM)

CCCCCOc1ccc(-c2cc(-c3ccc(C(=O)N[C@H]4C[C@@H](O)[C@@H](O)NC(=O)[C@@H]5[C@@H](O)[C@@H](C)CN5C(=O)[C@H]([C@H](O)CC(N)=O)NC(=O)[C@H]([C@H](O)[C@@H](O)c5ccc(O)c(OS(=O)(=O)O)c5)NC(=O)[C@@H]5C[C@@H](O)CN5C(=O)[C@H]([C@@H](C)O)NC4=O)cc3)no2)cc1 [micafungin] (X1-[Orn(4R-OH,5R-OH)]T[Hyp][hTyr(3S-OH,4S-OH,3'-OSO3H)][Gln(3R-OH)][Pro(3S-OH,4S-Me)]; lactam 1-C)
MIC [2, 3]: 0.008 mg/L (≈ 0.0063 µM)

[Cl-].[Na+] [NaCl]
NaCl sensitivity (C. albicans null mutants; [4]): +
NaCl sensitivity (C. albicans null mutants; [5]): +
NaCl sensitivity (C. albicans null mutants; [6]): +
sensitivity to NaCl (hyperosmotic stress) (C. albicans null mutants; all six csf mutants, increasing NaCl concentration (0-3M), 24 h at 37° C.): as sensitive as the parental strain
NaCl sensitivity (C. albicans null mutants; als1 null mutant vs wild type): +
NaCl sensitivity (C. albicans null mutants; hwp1 null mutant vs wild type): +
NaCl sensitivity (C. albicans null mutants; mp65 null mutant vs wild type): +
NaCl sensitivity (C. albicans null mutants; pra1 null mutant vs wild type): +
NaCl sensitivity (C. albicans null mutants; sap9 null mutant vs wild type): +

C[C@@H]1[C@H](O)[C@@H](C)/C=C/C=C/C=C/C=C/C=C/C=C/C=C/[C@H](O[C@@H]2O[C@H](C)[C@@H](O)[C@H](N)[C@@H]2O)C[C@@H]2O[C@](O)(C[C@@H](O)C[C@@H](O)[C@H](O)CC[C@@H](O)C[C@@H](O)CC(=O)O[C@H]1C)C[C@H](O)[C@H]2C(=O)O [amphotericin B]
MIC ([2]; including the clinical isolate and parental strain, endpoint 100% inhibition): 0.5 to 1 mg/L

CCCCCCCCCCCCOS(=O)(=O)[O-].[Na+] [SDS, sodium dodecyl sulfate]
sensitivity to SDS (C. albicans null mutants; mp65Δ, 6.1639Δ and sap9Δ, increasing concentrations of SDS (0-0.5%), 24 h at 37° C.): hypersensitive

CC(C)(C)NC(=O)[C@@H]1C[C@@H]2CCCC[C@@H]2CN1C[C@@H](O)[C@H](Cc1ccccc1)NC(=O)[C@H](CC(N)=O)NC(=O)c1ccc2ccccc2n1 [saquinavir]
inhibition of the activity of Sap2p, Sap1p, Sap1p and Sap1p [1]: inhibit the activity

O=S(=O)(O)c1cc(Nc2nc(Nc3ccccc3)nc(N(CCO)CCO)n2)ccc1/C=C/c1ccc(Nc2nc(Nc3ccccc3)nc(N(CCO)CCO)n2)cc1S(=O)(=O)O [Calcofluor white, calcofluor white]
Calcofluor white (CW) sensitivity (C. albicans null mutants; [4]): +++
growth in the presence of calcofluor (C. albicans null mutants; 6.1231Δ, 25 μg/ml calcofluor): no more cells were growing
Calcofluor white (CW) sensitivity (C. albicans null mutants; [5]): +
Calcofluor white (CW) sensitivity (C. albicans null mutants; [6]): ++
Calcofluor white (CW) sensitivity (C. albicans null mutants; als1 null mutant vs wild type): +
Calcofluor white (CW) sensitivity (C. albicans null mutants; hwp1 null mutant vs wild type): +
Calcofluor white (CW) sensitivity (C. albicans null mutants; mp65 null mutant vs wild type): +++
sensitivity to calcofluor white (C. albicans null mutants; mp65Δ): highly sensitive
Calcofluor white (CW) sensitivity (C. albicans null mutants; pra1 null mutant vs wild type): ++
Calcofluor white (CW) sensitivity (C. albicans null mutants; sap9 null mutant vs wild type): +

B1: Mycograb: monoclonal antibodies directed against hsp90 in clinical trials for systemic candidiasis (antibody, chains of the INN, looked up, V domains shown)
VH: EVQLVESGAEVKKPGESLRISCKGSGCIISSYWISWVRQMPGKGLEWMGKIDPGDSYINYSPSFQGHVTISADKSINTAYLQWNSLKASDTAMYYCARGGRDFGDSFDYWGQGTLVTVSS
VL: DVVMTQSPSFLSAFVGDRITITCRASSGISRYLAWYQQAPGKAPKLLIYAASTLQTGVPSRFSGSGSGTEFTLTINSLQPEDFATYYCQHLNSYPLTFGGGTKVDIK
modifications: scFv
notes: monoclonal antibodies directed against hsp90 in clinical trials for systemic candidiasis
serious adverse events (hsp90): No serious adverse events
